Reference: the supplement of paper PMC10307832

How the values were obtained:
Assay in all cases: relative viability (nuclei count vs DMSO), 5 days (fraction); higher = more cells survive
[1] = compound: C=CC(=O)N1CCC[C@@H](n2nc(-c3ccc(Oc4ccccc4)cc3)c3c(N)ncnc32)C1 [Ibrutinib] + CC(=O)Nc1cccc(-n2c(=O)n(C3CC3)c(=O)c3c(Nc4ccc(I)cc4F)n(C)c(=O)c(C)c32)c1 [Trametinib] (partner 0.02 µM)
In short: (§1)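 For relative viability, nuclei counts in treated wells were divided by those in vehicle wells. Lung cancer cell lines had been pin-tool dosed in 1536-well plates the day after seeding and cultured for 5 days, then fixed and stained in one step (final 0.05% Triton X-100, 1% formaldehyde, 1 ug/ml Hoechst) and imaged at 4×. Doses were one drug alone or a fixed anchor-drug dose plus five library-drug doses (not always all listed) in √10 steps, and values are duplicate-plate medians.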

[2] = compound: C=CC(=O)N1CCC[C@@H](n2nc(-c3ccc(Oc4ccccc4)cc3)c3c(N)ncnc32)C1 [Ibrutinib] + C[C@@H](Oc1cc(-c2cnn(C3CCNCC3)c2)cnc1N)c1c(Cl)ccc(F)c1Cl [Crizotinib] (partner 1 µM)
In short: as §1

[3] = compound: C=CC(=O)Nc1cc(-n2c(=O)ccc3cnc4ccc(-c5ccc(NS(C)(=O)=O)cc5)cc4c32)ccc1C [BMX-IN-1] + C[C@@H](Oc1cc(-c2cnn(C3CCNCC3)c2)cnc1N)c1c(Cl)ccc(F)c1Cl [Crizotinib] (partner 1 µM)
In short: as §1

[4] = compound: C=CC(=O)Nc1cc(-n2c(=O)ccc3cnc4ccc(-c5ccc(NS(C)(=O)=O)cc5)cc4c32)ccc1C [BMX-IN-1] + Nc1ncn([C@H]2C[C@H](O)[C@@H](CO)O2)c(=O)n1 [Decitabine] (partner 2 µM)
In short: as §1

Cell Line | relative viability ([1]; first compound 0.005 µM) | relative viability ([1]; first compound 0.01581 µM) | relative viability ([1]; first compound 0.05 µM) | relative viability ([1]; first compound 0.1581 µM) | relative viability ([1]; first compound 0.5 µM) | relative viability ([2]; first compound 0.005 µM) | relative viability ([2]; first compound 0.01581 µM) | relative viability ([2]; first compound 0.05 µM) | relative viability ([2]; first compound 0.1581 µM) | relative viability ([2]; first compound 0.5 µM) | relative viability ([3]; first compound 0.02 µM) | relative viability ([3]; first compound 0.2 µM) | relative viability ([3]; first compound 0.6325 µM) | relative viability ([3]; first compound 2 µM) | relative viability ([4]; first compound 0.02 µM) | relative viability ([4]; first compound 0.2 µM) | relative viability ([4]; first compound 0.6325 µM) | relative viability ([4]; first compound 2 µM)
NCI-H1651 | 0.858 | 0.807 | 0.765 | 0.776 | 0.773 | 0.952 | 0.871 | 0.819 | 0.818 | 0.88 | 0.976 | 1.01 | 0.907 | 0.862 | 0.5 | 0.667 | 0.722 | 0.593
NCI-H1666 | 0.809 | 0.849 | 0.832 | 0.938 | 0.744 | 1.01 | 0.864 | 0.904 | 0.932 | 0.697 | 1.08 | 0.98 | 1.05 | 0.906 | 0.673 | 0.746 | 0.839 | 0.716
NCI-H1734 | 0.636 | 0.67 | 0.677 | 0.596 | 0.618 | 0.587 | 0.689 | 0.675 | 0.761 | 0.67 | 0.797 | 0.807 | 0.794 | 0.703 | 0.534 | 0.568 | 0.522 | 0.831
NCI-H1755 | 0.761 | 0.796 | 0.796 | 0.793 | 0.746 | 0.832 |  | 0.909 | 0.909 | 0.852 | 1.01 | 1.07 | 0.958 | 0.843 | 0.644 | 0.683 | 0.795 | 0.758
NCI-H1792 |  | 0.404 | 0.48 | 0.44 | 0.36 | 0.979 | 0.989 | 1.13 | 0.654 | 0.961 | 0.886 | 1.7 | 0.855 | 0.977 | 0.539 | 0.615 | 0.525 | 0.568
NCI-H1915 | 0.324 | 0.295 | 0.28 | 0.292 | 0.283 |  | 0.858 | 0.92 | 0.921 | 0.897 | 1.28 | 0.964 | 0.946 | 0.977 | 0.282 | 0.272 | 0.284 | 0.273
NCI-H1944 | 0.423 | 0.369 | 0.395 | 0.363 | 0.374 | 0.99 | 0.88 | 0.963 |  | 0.782 | 1.21 | 1.28 | 1.21 | 1.07 | 0.459 | 0.402 | 0.481 | 0.426
NCI-H1975 | 0.274 | 0.303 | 0.287 | 0.302 | 0.213 | 0.986 | 0.859 | 0.88 | 0.96 | 0.558 | 1.31 | 1.02 | 1.11 | 0.86 | 0.362 | 0.345 | 0.42 | 0.417
NCI-H1993 | 0.487 | 0.571 | 0.518 | 0.617 | 0.398 | 0.843 | 0.744 | 0.704 |  | 0.713 | 0.912 | 0.873 |  | 0.835 | 0.678 | 0.525 | 0.53 | 0.631
NCI-H2009 | 0.208 | 0.252 | 0.253 | 0.306 | 0.234 | 1.04 | 1.04 | 1.08 | 1.11 | 1.1 | 1.11 | 1.07 | 1.26 | 1.06 | 0.381 | 0.402 | 0.41 | 0.368
NCI-H2023 | 0.448 | 0.455 | 0.491 | 0.485 | 0.462 | 0.55 | 0.637 | 0.423 | 0.603 | 0.356 | 0.865 | 0.639 | 0.753 | 0.676 | 0.236 | 0.247 | 0.223 | 0.295
NCI-H2085 | 0.499 | 0.548 | 0.566 | 0.661 | 0.463 | 0.92 | 0.852 | 0.772 | 0.918 | 0.706 | 0.98 | 0.815 | 0.897 | 0.855 | 0.553 | 0.595 | 0.564 | 0.597
NCI-H2087 | 0.166 | 0.196 | 0.199 |  | 0.2 | 0.849 | 0.949 | 1.04 | 0.872 | 0.862 | 0.902 | 1.02 | 1.01 | 1.03 | 0.29 | 0.343 | 0.239 | 0.325
NCI-H2126 | 0.5 | 0.474 | 0.522 | 0.559 | 0.466 |  | 1 | 0.994 | 1.06 | 0.936 | 1.2 | 1.06 | 1.15 | 1.1 | 0.522 | 0.515 | 0.59 | 0.601
NCI-H2170 | 0.806 | 0.744 | 0.637 | 0.955 | 0.184 | 1.07 | 0.824 | 0.452 | 1.19 | 0.227 | 1.5 | 1.27 | 1.1 | 1.38 | 0.454 | 0.499 | 0.469 | 0.495
NCI-H2347 | 0.283 | 0.228 | 0.37 | 0.245 | 0.239 | 0.679 | 0.684 | 0.739 | 0.592 | 0.696 | 0.735 | 0.678 | 0.675 | 0.624 | 0.647 | 0.678 | 0.608 | 0.75
NCI-H2405 | 0.546 | 0.558 |  |  | 0.448 |  | 0.886 | 0.779 | 0.824 | 0.8 | 0.939 | 0.892 | 0.903 | 0.886 | 0.702 | 0.723 | 0.851 | 0.716
NCI-H3122 | 0.23 | 0.244 | 0.251 | 0.223 | 0.221 | 0.237 | 0.263 | 0.254 | 0.253 | 0.244 | 0.3 | 0.27 | 0.271 | 0.3 | 0.421 | 0.33 | 0.548 | 0.514
